Reference: patent EP4703359A1 (Shanghai Simr Biotechnology Co., Ltd., priority 2023, dated 2024)
Structures can show the parent of a compound that is named as a salt.

What follows are compounds tested against T1, α2-GABAA receptor (Homo sapiens, UniProt P18507+P47869) (assay: Whole-cell patch-clamp electrophysiology, positive allosteric modulatory activity in α2-GABAAR-HEK293 cells). Conditions: compound 100 nM; GABA 0.10 to 0.11 µM (approximately EC7-8); normalized to reference compound CVL-865 (= 100%).
T1 construct: expressed in transfected cells
Format: cell-based
Description: The α subunit, β subunit, and γ subunit are indispensable for forming a fully functional GABAA receptor. In this example, HEK293 cells stably expressing α2-GABAA receptors (α2-GABAAR) were constructed and screened respectively via liposome transfection (Felgner, P.L., et al. Proceedings of the National Academy of Sciences, 1987, 84: 7413-7417). The α2-GABAAR-HEK293 cell model co-expresses the α2 subunit (protein sequence referenced under GenBank accession number: NM_000807.4), β3 subunit (protein sequence referenced under GenBank accession number: NM_000814.5), and γ2 subunit (protein sequence referenced under GenBank accession number: NM_000816.3).
The above cell lines were subcultured. α2-GABAAR-HEK293 cells were amplified for testing the affinity of compounds to the benzodiazepine (BZD) site of GABAA receptors. Some of the α2-GABAAR-HEK293 cells in suspension during subculturing were plated on glass slides pre-treated with Poly-D-Lysine for electrophysiological testing (method reference: Patent CN 107344936 A, paragraph 0586).
The positive modulatory activity of the test drug on the α2-GABAA receptor was assessed using electrophysiological methods. The specific approach is as follows:
With regards to the concentration of the compound, the final concentration of all compounds used in the screening was 100 nM. For cell lines expressing α2-GABAA receptors, the GABA concentration was 0.10 to 0.11 µM (approximately EC7-8). Electrophysiological experiments were conducted using the whole-cell patch-clamp technique, which can be referenced to the method reported in the literature (Nickolls, S. A., et al. *British Journal of Pharmacology*, 2018, 175: 708-725). The composition of the extracellular solution (ECS) for electrophysiology was as follows: 150 mM NaCl, 5 mM KCl, 2.5 mM CaCl2, 1 mM MgCl2, 10 mM HEPES, and 10 mM glucose (pH 7.4). The intracellular solution (ICS) for electrophysiology was formulated as follows: 140 mM CsCl, 11 mM EGTA, 10 mM HEPES, 2 mM CaCl2, 1 mM MgCl2, 4 mM MgATP, and 2 mM TEA (pH 7.3). GABA (γ-aminobutyric acid) powder was dissolved in pure water to prepare a stock solution, which was subsequently diluted in ECS. The compound was initially dissolved in dimethyl sulfoxide to prepare a 4 mM stock solution, followed by stepwise dilution into GABA-ECS at corresponding concentrations. All solutions were freshly prepared prior to electrophysiological testing.
Electrophysiological signals were acquired using an EPC 10 amplifier and PatchMaster software (HEKA) or an Axon 700B amplifier and Clampex software (AXON). The recording electrode was pulled from borosilicate glass, with an electrode resistance of 4 to 6 MΩ. Extracellular administration was performed using the ALA-VC-8PG™ system. A single independently growing cell was selected. After forming a tight seal between the glass electrode and the cell membrane, the membrane was ruptured to establish the whole-cell configuration. The cell membrane potential was clamped at -60 mV and recorded in Gap-free mode. During the test, extracellular fluid was first applied externally for approximately 20 seconds. After the baseline (Iprebaseline) was stabilized, the extracellular solution was switched to GABA-ECS. At this point, the current induced by GABA (Igaba) can be detected. After approximately 10 to 20 seconds, once the current had stabilized, the extracellular solution was switched to a mixture of the compound and GABA-ECS until the current induced by both the compound and GABA (Itreatment) could be detected. Finally, the solution was switched to extracellular fluid, and the recording was terminated after 20 to 40 seconds. Only cells with a stable baseline, an absolute control current magnitude (Igaba - Iprebaseline) greater than 40 pA, and a relatively stable current within 10 to 20 seconds were used for compound testing. […]

T1 sequence (P47869 29-451): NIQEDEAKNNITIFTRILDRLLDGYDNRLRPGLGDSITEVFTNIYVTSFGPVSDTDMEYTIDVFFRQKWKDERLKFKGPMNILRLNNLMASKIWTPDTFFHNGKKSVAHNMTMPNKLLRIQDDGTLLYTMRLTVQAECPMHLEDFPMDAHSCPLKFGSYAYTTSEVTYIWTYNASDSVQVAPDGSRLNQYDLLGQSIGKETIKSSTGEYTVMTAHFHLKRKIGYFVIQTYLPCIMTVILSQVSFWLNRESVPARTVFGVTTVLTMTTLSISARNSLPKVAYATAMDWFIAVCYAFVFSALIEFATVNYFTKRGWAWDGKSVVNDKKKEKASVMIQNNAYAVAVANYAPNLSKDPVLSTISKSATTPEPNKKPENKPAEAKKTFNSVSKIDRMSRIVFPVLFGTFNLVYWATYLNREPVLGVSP
T1 sequence (P18507 40-467 isoform P18507-1 limits assumed): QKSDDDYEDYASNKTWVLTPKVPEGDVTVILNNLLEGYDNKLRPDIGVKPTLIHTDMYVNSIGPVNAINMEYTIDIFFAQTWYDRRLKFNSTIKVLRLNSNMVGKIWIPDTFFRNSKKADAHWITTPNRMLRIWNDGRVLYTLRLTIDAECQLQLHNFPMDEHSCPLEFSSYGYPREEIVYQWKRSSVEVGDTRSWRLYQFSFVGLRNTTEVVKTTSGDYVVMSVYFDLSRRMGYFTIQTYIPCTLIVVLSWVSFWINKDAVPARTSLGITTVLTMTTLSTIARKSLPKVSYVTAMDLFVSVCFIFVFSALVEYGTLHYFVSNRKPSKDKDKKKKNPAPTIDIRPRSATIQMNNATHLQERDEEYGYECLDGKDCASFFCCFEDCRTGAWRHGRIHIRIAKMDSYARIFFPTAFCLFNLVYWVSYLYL
T1 sequence (P28472 26-473 partner): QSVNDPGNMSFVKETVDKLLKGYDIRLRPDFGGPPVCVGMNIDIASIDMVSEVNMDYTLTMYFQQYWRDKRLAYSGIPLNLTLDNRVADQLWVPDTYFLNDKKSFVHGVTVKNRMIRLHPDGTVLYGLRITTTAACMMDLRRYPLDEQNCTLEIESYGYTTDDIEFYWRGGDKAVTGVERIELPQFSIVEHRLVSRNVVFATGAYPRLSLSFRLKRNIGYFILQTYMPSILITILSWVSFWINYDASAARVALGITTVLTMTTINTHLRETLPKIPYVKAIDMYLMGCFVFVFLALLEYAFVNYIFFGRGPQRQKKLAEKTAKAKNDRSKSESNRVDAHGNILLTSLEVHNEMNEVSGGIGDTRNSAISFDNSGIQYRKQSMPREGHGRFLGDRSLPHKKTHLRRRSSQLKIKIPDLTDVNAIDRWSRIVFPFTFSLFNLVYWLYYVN

Structure (SMILES)	α2-GABAAR Positive allosteric modulatory activity [%]
[2H]c1ccc(-c2c(F)cccc2OC)c2nc(C(=O)NCCC)c(N)n12 [Example 156, 3-amino-8-(2-fluoro-6-methoxyphenyl)-N-propylimidazo[1,2-a]pyridine-5-deuterium-2-carboxamide]	100
[2H]c1cc(-c2c(F)cccc2OC)c2nc(C(=O)NCCC)c(N)n2c1 [Example 154, 3-Amino-8-(2-fluoro-6-methoxyphenyl)-N-propylimidazo[1,2-a]pyridine-6-deuterio-2-carboxamide]	84

Same assay, conditions: compound 100 nM; GABA 0.10 to 0.11 µM (approximately EC7-8); normalized to reference compound CVL-865 (= 100%); read-out: α2-GABAAR Positive allosteric modulatory activity

Structure (SMILES)	Emax at 0.1 µM [%]
CCCNC(=O)c1nc2c(-c3cncc(C)c3)cccn2c1N [Example 87, 3-Amino-8-(5-methylpyridin-3-yl)-N-propylimidazo[1,2-a]pyridine-2-carboxamide]	48
CCCNC(=O)c1nc2c(-c3ccc(F)cc3OC)c(F)ccn2c1N [Example 121, 3-Amino-7-fluoro-8-(4-fluoro-2-methoxyphenyl)-N-propylimidazo[1,2-a]pyridine-2-carboxamide]	88
CCCNC(=O)c1nc2c(-c3c(F)cccc3OC)c(Cl)ccn2c1N [Example 130, 3-Amino-7-chloro-8-(2-fluoro-6-methoxyphenyl)-N-propylimidazo[1,2-a]pyridine-2-carboxamide]	53
CCCNC(=O)c1nc2c(-c3cccc(C#N)c3)c(F)ccn2c1N [Example 126, 3-Amino-8-(3-cyanophenyl)-7-fluoro-N-propylimidazo[1,2-a]pyridine-2-carboxamide]	99
CCCNC(=O)c1nc2c(-c3c(F)ccc4ccoc34)cccn2c1N [Example 101, 3-Amino-8-(6-fluorobenzofuran-7-yl)-N-propylimidazo[1,2-a]pyridine-2-carboxamide]	112
CCCNC(=O)c1nc2c(-c3cccnc3F)cccn2c1N [Example 90, 3-Amino-8-(2-fluoropyridin-3-yl)-N-propylimidazo[1,2-a]pyridine-2-carboxamide]	60
COc1cccc(F)c1-c1cccn2c(N)c(C(=O)NCCc3ccccc3)nc12 [Example 21, 3-Amino-8-(2-fluoro-6-methoxyphenyl)-N-phenethylimidazo[1,2-a]pyridine-2-carboxamide]	43
CCCNC(=O)c1nc2c(-c3cc(F)ccc3OC)c(F)ccn2c1N [Example 110, 3-Amino-7-fluoro-8-(5-fluoro-2-methoxyphenyl)-N-propylimidazo[1,2-a]pyridine-2-carboxamide]	141
CCCNC(=O)c1nc2c(-c3c(F)cccc3OC)c(C(F)F)ccn2c1N [Example 128, 3-Amino-7-(difluoromethyl)-8-(2-fluoro-6-methoxyphenyl)-N-propylimidazo[1,2-a]pyridine-2-carboxamide]	49
CCn1cnc2c(-c3ccc(F)c(-c4ccc(S(=O)(=O)CC)cc4OC)c3)cnnc21 [CVL-865, reference compound]	100
CCCNC(=O)c1nc2c(-c3cc(F)cc(F)c3)c(F)ccn2c1N [Example 113, 3-Amino-8-(3,5-difluorophenyl)-7-fluoro-N-propylimidazo[1,2-a]pyridine-2-carboxamide]	49
COc1cccc(F)c1-c1cccn2c(N)c(C(=O)Nc3ccccn3)nc12 [Example 14, 3-Amino-8-(2-fluoro-6-methoxyphenyl)-N-(pyridin-2-yl)imidazo[1,2-a]pyridine-2-carboxamide]	54
CCCNC(=O)c1nc2c(-c3c(F)cccc3OC)cc(F)cn2c1N [Example 155, 3-Amino-6-fluoro-8-(2-fluoro-6-methoxyphenyl)-N-propylimidazo[1,2-a]pyridine-2-carboxamide]	56
CCCCNC(=O)c1nc2c(-c3c(F)cccc3OC)c(F)ccn2c1N [Example 124, 3-Amino-N-butyl-7-fluoro-8-(2-fluoro-6-methoxyphenyl)imidazo[1,2-a]pyridine-2-carboxamide]	90
CCCNC(=O)c1nc2c(-c3cn4ccnc4cc3OC)cccn2c1N [Example 94, 3'-Amino-7-methoxy-N-propyl-[6,8'-diimidazo[1,2-a]pyridine]-2'-carboxamide]	51

Continued, values first:

Emax at 0.1 µM [%]	Structure (SMILES)
87	CCCNC(=O)c1nc2c(-c3c(OC)ccc4ccoc34)cccn2c1N [Example 103, 3-Amino-8-(6-methoxybenzofuran-7-yl)-N-propylimidazo[1,2-a]pyridine-2-carboxamide]
85	[2H]c1ccn2c(N)c(C(=O)NCCC)nc2c1-c1c(F)cccc1OC [Example 150, 3-Amino-8-(2-fluoro-6-methoxyphenyl)-N-propylimidazo[1,2-a]pyridine-7-deuterio-2-carboxamide]
57	COc1cccc(F)c1-c1cccn2c(N)c(C(=O)NCCCO)nc12 [Example 23, 3-Amino-8-(2-fluoro-6-methoxyphenyl)-N-(3-hydroxypropyl)imidazo[1,2-a]pyridine-2-carboxamide]
64	CCCNC(=O)c1nc2c(-c3c(C#N)cccc3OC)cccn2c1N [Example 73, 3-Amino-8-(2-cyano-6-methoxyphenyl)-N-propylimidazo[1,2-a]pyridine-2-carboxamide]
77	CCCNC(=O)c1nc2c(-c3c(F)ccc(Cl)c3OC)cccn2c1N [Example 80, 3-Amino-8-(2-fluoro-6-methoxyphenyl-5-chloro)-N-propylimidazo[1,2-a]pyridine-2-carboxamide]
39	COCCNC(=O)c1nc2c(-c3c(F)cccc3OC)cccn2c1N [Example 24, 3-Amino-8-(2-fluoro-6-methoxyphenyl)-N-(2-methoxyethyl)imidazo[1,2-a]pyridine-2-carboxamide]
51	CCCNC(=O)c1nc2c(-c3c(C#N)cccc3OC)c(F)ccn2c1N [Example 118, 3-Amino-8-(2-cyano-6-methoxyphenyl)-7-fluoro-N-propylimidazo[1,2-a]pyridine-2-carboxamide]
25	CC#Cc1cccc(-c2cccn3c(N)c(C(=O)NCCC)nc23)c1 [Example 40, 3-Amino-8-(3-(prop-1-yn-1-yl)phenyl)-N-propylimidazo[1,2-a]pyridine-2-carboxamide]
48	CCCNC(=O)c1nc2c(-c3c(F)cccc3OC)c(C)ccn2c1N [Example 132, 3-Amino-8-(2-fluoro-6-methoxyphenyl)-7-methyl-N-propylimidazo[1,2-a]pyridine-2-carboxamide]
101	CCCNC(=O)c1nc2c(-c3c(F)cccc3OC(F)(F)F)cccn2c1N [Example 75, 3-Amino-8-(2-fluoro-6-(trifluoromethoxy)phenyl)-N-propylimidazo[1,2-a]pyridine-2-carboxamide]
25	COc1cccc(F)c1-c1cccn2c(N)c(C(=O)NCCO)nc12 [Example 22, 3-Amino-8-(2-fluoro-6-methoxyphenyl)-N-(2-hydroxyethyl)imidazo[1,2-a]pyridine-2-carboxamide]
36	CCCNC(=O)c1nc2c(-c3c(F)cccc3COC)cccn2c1N [Example 65, 3-Amino-8-(2-fluoro-6-(methoxymethyl)phenyl)-N-propylimidazo[1,2-a]pyridine-2-carboxamide]

Same assay, conditions: read-out: α2-GABAAR Positive allosteric modulatory activity

Structure (SMILES)	Emax at 0.1 µM [%]
CCCNC(=O)c1nc2c(CC(C)C)cccn2c1N [Example 143, 3-Amino-8-isobutyl-N-propylimidazo[1,2-a]pyridine-2-carboxamide hydrochloride]	48
